One data set deals with TGF-beta1 mRNA. The following applies: vascular smooth muscle cells, 24 h, 10 µM.
The next data set concerns Rat aortic SMCs. The data set can be described thus: Wound migration assay on confluent SMC. The format is cell-based. The procedure: Cell culture. Rat aortic SMCs from 12-20 week old Wistar male rats were prepared by enzyme dispersion, as described in Example 7. The cultured cells were confirmed as >99% SMC by staining for SM-MHC, and proliferated with a cell cycle time of 36 h. Cells were passaged as described in Example 7, and were used either in primary culture or between passages 6-12.
Migration. Migration was assayed using SMC grown to confluence on glass coverslips. A defined injury is performed on the confluent layer of cells, which are allowed to recover in D-MEM + 10% FCS for 24 h. Bromodeoxyuridine (10 µM) is added between 18-24 h, to label proliferating cells. Cells migrating past the boundary of the wound edge at 24 h are detected by propidium iodide (PI) staining of the cell nuclei (500 µM PI in PBS + 0.5% NP-40 for 30 min at room temperature). Cells that synthesized DNA were detected by antibody staining for bromodeoxyuridine using fluorescein-conjugated anti-bromodeoxyuridine antibodies. Migrating and proliferating cells in each field of view were simultaneously counted by image analysis of the rhodamine emission from PI and fluorescein emission from bromodeoxyuridine.

For data set [1], the system named is TGF-beta. Put plainly: TGF-beta activity in medium conditioned on rat vascular smooth muscle cells (MvLu cell assay). Format: cell-based. The following applies: cells treated for 96 hours in 10% FCS. How it is done:
Assays for TGF-Beta. The TGF-beta activity present in medium conditioned on various cells was determined by DNA synthesis assay on mink lung […] (MvLu) cells; a modification of the assay described in Danielpour et al., J. Cell. Physiol., 138: 79-83, 1989. MvLu cells were subcultured at 1:5 dilution in DMEM + 10% FCS. After 24 hours, the medium was replaced with the conditioned medium to be tested in the absence or presence of the neutralizing antiserum to TGF-beta at 10 micrograms/ml. DNA synthesis during a 1 hour pulse of [^3H]-thymidine (5 microcuries/ml) was determined 23 hours after addition of the test medium. TGF-beta activity was calculated as the proportion of the inhibition of DNA synthesis which was reversed in the presence of neutralizing antibody, using a standard curve to convert the inhibition values into quantities of TGF-beta. The TGF-beta1 standards and conditioned media both contained 10% FCS in DMEM.

Data set [2] in a line: Proliferation of explant-derived (EX) human VSMC cultures. The format is cell-based. The following applies: human, aortic vsmc ex cultures. How it is done: (§1) Human aortic VSMC cultures. Adult human VSMC were obtained from 6 transplant donors (either sex, age range from 3 to 54 years) using the enzyme dispersal or explant technique. In one case, the same donor (a person) was used to establish both an enzyme-dispersed (ED) and explant-derived (EX) cell culture. Prior to enzyme-dispersion or explanting treatment, human aortas were obtained within 18 h of death. The endothelium layer was removed with a scalpel blade and strips of smooth muscle cells (tunica media) were removed with forceps and chopped into small pieces (1 mm^3).
(§2) EX Cultures. The aortic pieces were washed once with D-MEM + 10% FCS, resuspended in a small volume of fresh D-MEM + 10% FCS, and transferred to culture flasks or Petri dishes. The pieces were allowed to sediment onto the plastic and were evenly distributed (≈ 4 pieces/cm^2). Cells started to grow out from the explants after 3-7 d in culture. The aortic pieces were removed during the third week in culture, and the cells adhering to the plastic were allowed to grow to confluence for a further week. The cells were then subcultured every 4-5 days by releasing them with trypsin/EDTA and diluting them 1:2 in D-MEM + 10% FCS. Subcultured cells were incubated with fresh D-MEM + 20% FCS as described for ED cultures.
(§3) Cell counting, DNA synthesis assays and assays for total and active TGF-beta were performed as described in Example 7.

In another data set the test system is human EX cultures. The description is as above. Format: cell-based. The following applies: Homo sapiens, VSMC. The procedure:
as §1, §2, §3

For data set [3], the system named is TGF-beta. The data set can be described thus: Sandwich ELISA for total latent plus active TGF-beta, rat vascular smooth muscle cell conditioned medium. The format is cell-based. The procedure: The total latent and active TGF-beta present was determined by a sandwich ELISA. Maxisorb 96-well ELISA plates (available from Gibco) were coated with neutralizing antiserum against TGF-beta (BDA19; available from R & D Systems) at 2 micrograms/cm^2 in phosphate buffered saline (PBS) overnight at room temperature. The plates were washed between each step with tris-buffered saline containing 0.1% Triton X-100 (available from Sigma Chemical Company). The plates were incubated with samples for 2 hours, with a second antibody to TGF-beta (BDA5; available from R & D Systems) at 0.1 micrograms/ml for 2 hours, anti-rabbit IgG peroxidase conjugated to antibody (available from Sigma Chemical Co.), made up according to manufacturer's instructions, for 15 minutes. Absorbances at 492 nm were converted into quantities of TGF-beta protein using a standard curve. Both conditioned media and standards were assayed in the presence of 10% FCS in DMEM. This assay was linear for TGF-beta concentrations in the range from 0.1 ng/ml to 20 ng/ml in the presence of 10% FCS in DMEM.
In general terms: In an ELISA, binding on a coated surface is turned into a signal by an enzyme label.

Consider `CC/C(=C(\c1ccccc1)c1ccc(OCCN(C)C)cc1)c1ccccc1` [tamoxifen, trans-2-[4-(1,2-diphenyl-1-butenyl)phenoxy]-N,N-dimethylethylamine], for which the “increase of TGF-beta1 mRNA” value with TGF-beta1 mRNA was “approximately 10 fold”. In the data set with Rat aortic SMCs (Rattus norvegicus, added at the time of wounding, TGF-beta-1 10 ng/ml, tamoxifen 10 µM, 24 h, read-out: less cells crossed the boundary of the wound), the inhibition at 10 µM was ~90%. For the same compound, the “entry into DNA synthesis stimulated upon wounding” value in the data set with Rat aortic SMCs (bromodeoxyuridine labeling) is “did not significantly inhibit”. In the data set with TGF-beta [1], the “increase of TGF-beta activity in the medium” value is listed as > 50 fold. Also, the MCC in data set [2] was > 33 µM. In addition, in the data set on human EX cultures (0.5 µM, 96 h in D-MEM + 20% FCS, vs ethanol vehicle, read-out: inhibition of the increase in cell number), the inhibition at 0.5 µM was 27 ± 2%. In the data set on human EX cultures (5 µM, read-out: inhibition of the increase in cell number), the inhibition at 5 µM came to 33 ± 8%. For the same compound, in the data set on human EX cultures (read-out: half-maximal inhibitory dose), the IC50 fell in the range of 0.03 to 0.1 µM. The “proportion of the TGF-beta present in active form” value in the data set with TGF-beta [3] (50 micromolar, 96 hours, vehicle < 5%) is recorded as “approximately 35%”. Moreover, the fold induction at 50 µM in the data set with TGF-beta [3] (Rattus norvegicus, 96 h, read-out: increase of total TGF-beta protein present) is ~4.

Source of the values: patent publication EP1510220B1 (priority 1993, dated 1994).
